From PubChem BioAssay (NCI)
Values joined by “and” are separate entries in the source; they are usually repeats but may differ in a detail not shown here. Equal entries are not always repeated.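 Assay format: 96-well plates, 48-hour exposure. GI50 marks 50% less growth. TGI: total growth inhibition.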

Experiments:
Assay in all cases: growth of human tumour cells (NCI), 48 h
IGROV1 ovarian = tested on: IGROV1 ovarian
UACC-62 melanoma = tested on: UACC-62 melanoma
U251 CNS = tested on: U251 CNS
SNB-75 CNS = tested on: SNB-75 CNS
SR leukemia = tested on: SR leukemia
SK-MEL-5 melanoma = tested on: SK-MEL-5 melanoma
EKVX NSCLC = tested on: EKVX NSCLC
KM12 colon = tested on: KM12 colon
NCI/ADR-RES ovarian = tested on: NCI/ADR-RES ovarian
K-562 leukemia = tested on: K-562 leukemia

| Structure (SMILES) | GI50 (IGROV1 ovarian) | TGI (IGROV1 ovarian) | GI50 (UACC-62 melanoma) | TGI (UACC-62 melanoma) | GI50 (U251 CNS) | TGI (U251 CNS) | GI50 (SNB-75 CNS) | TGI (SNB-75 CNS) | GI50 (SR leukemia) | TGI (SR leukemia) | GI50 (SK-MEL-5 melanoma) | TGI (SK-MEL-5 melanoma) | GI50 (EKVX NSCLC) | TGI (EKVX NSCLC) | GI50 (KM12 colon) | TGI (KM12 colon) | GI50 (NCI/ADR-RES ovarian) | TGI (NCI/ADR-RES ovarian) | GI50 (K-562 leukemia) | TGI (K-562 leukemia) |
| --- | --- | --- | --- | --- | --- | --- | --- | --- | --- | --- | --- | --- | --- | --- | --- | --- | --- | --- | --- | --- |
| O=c1c(Cl)nnc2sc3ccccc3n12 | 31.9 µM | > 100 µM | 40.8 µM | > 100 µM | 30.9 µM | 85.3 µM | > 100 µM | > 100 µM | 13.1 µM | > 100 µM | 37.3 µM | > 100 µM | 24.2 µM | > 100 µM | 32.3 µM | > 100 µM | 13.3 µM | 41.9 µM | 26 µM | > 100 µM |
| COc1cc[nH]c1/C=C1\C(=O)Nc2ccc(F)c(C#C[C@@H](O)[C@@H](N)[C@@H](C)O)c21 | 0.618 µM | 5.24 µM | 0.277 µM | 0.853 µM | 0.445 µM | 2.61 µM | 0.112 µM | 0.75 µM | 0.114 µM | 1.95 µM | 0.676 µM | 2.35 µM | – | – | 0.0312 µM | 2.19 µM | 6.65 µM | 25 µM | 0.651 µM | 3.44 µM |
| C[C@@H](c1ccc2nccn2c1)n1nnc2ncc(-c3cnn(C)c3)nc21 | > 100 µM | > 100 µM | > 100 µM | > 100 µM | > 100 µM | > 100 µM | > 100 µM | > 100 µM | 49.9 µM | > 100 µM | > 100 µM | > 100 µM | > 100 µM | > 100 µM | 43.3 µM | > 100 µM | > 100 µM | > 100 µM | > 100 µM | > 100 µM |
| COc1ccccc1C(=O)/C=C/c1cc2cccc(OC)c2[nH]c1=O | 0.0523 µM | 2.36 µM | 0.0412 µM | 1.93 µM | 0.0319 µM | 1.5 µM | 0.0191 µM | 3.6 µM | – | > 51.3 µM | 0.0374 µM | 0.843 µM | 0.375 µM | 3.17 µM | < 0.0167 µM | 1.13 µM | 0.0194 µM | 13.6 µM | < 0.0125 µM | > 89.1 µM |
| COc1cc(CCc2cc(NC(=O)c3ccc(N4C[C@@H](C)N[C@@H](C)C4)cc3)n[nH]2)cc(OC)c1 | 2.93 µM and 4.59 µM | > 10 µM and 19.8 µM | > 10 µM and 6.82 µM | > 10 µM and 21.2 µM | > 10 µM and 3.86 µM | > 10 µM and 18 µM | 1.93 µM and 2.61 µM | > 10 µM and 11.2 µM | 3.75 µM and 2.34 µM | > 10 µM and 5.42 µM | 9.72 µM and 3.83 µM | > 10 µM and 12.7 µM | > 10 µM | > 10 µM | 0.0759 µM and 0.107 µM | > 10 µM and 11 µM | > 10 µM and 17.1 µM | > 10 µM and 36.8 µM | 6.89 µM and 4.18 µM | > 10 µM and 15.8 µM |
| COc1cc(O)c(C(=O)/C=C/c2ccccc2)c(OC)c1 | – | 17.4 µM | – | 17.3 µM | – | 21.3 µM | – | – | – | 6.05 µM | – | 24.2 µM | – | 22.4 µM | – | 13.6 µM | – | 14.4 µM | – | – |
| CC1(C)CC(=O)C2=C(C1)NC(SSC1=C(C#N)C(c3ccccc3)C3=C(CC(C)(C)CC3=O)N1)=C(C#N)C2c1ccccc1 (stereo not drawn) | 28.3 µg/mL | 50.1 µg/mL | 26.3 µg/mL | 47.6 µg/mL | 33.2 µg/mL | 64.2 µg/mL | 29 µg/mL | 53.3 µg/mL | 26.5 µg/mL | 103 µg/mL | 27.8 µg/mL | 48.7 µg/mL | 28.6 µg/mL | 56.2 µg/mL | 26.2 µg/mL | 49.7 µg/mL | 32.9 µg/mL | 65.9 µg/mL | 42.3 µg/mL | 145 µg/mL |
| O=[N+]([O-])c1ccc(Sc2ncccn2)c([N+](=O)[O-])c1 | 1.27 µM | 13.6 µM | 4.31 µM | 16.2 µM | 4.46 µM | 15.3 µM | 4.51 µM | 17.6 µM | 1.2 µM | 17.9 µM | 10.4 µM | 22.4 µM | 3.96 µM | 18.7 µM | 4.36 µM | 15.9 µM | 6.55 µM | 20.1 µM | 2.52 µM | 12.1 µM |
| O=C1C=C[C@]2(C[C@@H](c3cccc(C(F)(F)F)c3)O[C@@H](c3cccc(C(F)(F)F)c3)O2)O1 | 1.66 µM | 4.41 µM | 1.77 µM | 4.63 µM | 2.58 µM | 12.9 µM | 2.79 µM | 16.1 µM | 0.674 µM | 5.4 µM | 1.8 µM | 3.72 µM | 12.9 µM | 27.7 µM | 3.09 µM | 13.9 µM | 1.9 µM | 6.62 µM | 2.68 µM | > 100 µM |
| Cc1ccc(S(=O)(=O)NC(CCC(=O)Nc2ccc(Cl)cc2)C(=O)Nc2ccc(Cl)cc2)cc1 (stereo not drawn) | 0.852 µM | 8.58 µM | 0.0967 µM | 0.367 µM | 0.574 µM | 5.13 µM | 0.743 µM | 2.23 µM | 0.197 µM | 6.76 µM | 0.235 µM | 3.94 µM | 2.01 µM | 9.31 µM | 0.112 µM | 6 µM | 1.03 µM | 7.63 µM | 0.0519 µM | 6.3 µM |
| O=C1CC(=O)N(C2CCCCC2)C(=O)N1c1ccccc1S(=O)(=O)Oc1ccccc1 | – | 30.2 µM | – | > 100 µM | – | > 100 µM | – | > 100 µM | – | > 100 µM | – | > 100 µM | – | > 100 µM | – | > 100 µM | – | > 100 µM | – | 85.9 µM |
| Cc1cc(NC(=O)C2c3ccccc3C(=O)N(CC(C)C)C2c2cccs2)no1 (stereo not drawn) | > 100 µM | > 100 µM | 86 µM | > 100 µM | 84.2 µM | > 100 µM | 10.5 µM | > 100 µM | 35.5 µM | > 100 µM | 73.2 µM | > 100 µM | – | – | 48.4 µM | > 100 µM | 90.2 µM | > 100 µM | 50.9 µM | > 100 µM |
| O=C(c1cccs1)c1c(C(F)(F)F)n([O-])c2ccc(C(F)(F)F)cc2[n+]1=O | 0.132 µM | 0.278 µM | 0.34 µM | 1.08 µM | 0.179 µM | 0.322 µM | 0.502 µM | 1.21 µM | 0.301 µM | 1.28 µM | 0.483 µM | 0.914 µM | 0.241 µM | 0.529 µM | 0.295 µM | 0.774 µM | 0.219 µM | 0.573 µM | 0.251 µM | 1.21 µM |
